Data as given in patent publication US7427670B2, “Cytochrome P450 24 (CYP24) monoclonal antibody and methods and uses thereof” (Cytochroma Inc., priority 2003, dated 2008).

Test system: CYP24 protein in HEK cells
Assay: CYP24 protein expression in HEK cells, Western blot with anti-CYP24 mAb and densitometric analysis
Format: cell-based, human
Settings: 10 nM
Method: • Human Epidermal Keratinocyte Cells (HEK) cells (CYP24 expressing cells) • Keratinocyte Growth Medium (KGM®; Cambrex) • HEK Cell Lysis Buffer (0.5 M Tris, pH 6.8, 10% SDS, glycerol, dH2O, protease inhibitor) • 1.7 ml eppendorf tubes • Isopropanol • Enhanced Chemiluminescense (ECL) Western Blotting Detection Reagants (Amersham Pharmacia) • 10 nM Calcitriol (Vitamin D) • 10 nM CTAX (Cytochroma Inc.) (“Vitamin D analog”) • 10 nM CTAY (Cytochroma Inc.) (“Vitamin D analog”) • 10 nM CTAZ (Cytochroma Inc.) (“Vitamin D analog”) • 6-well plates (i) HEK Cell Preparation Method:
125 thousand HEK cells per well were placed in 2.5 ml KGM® (2 plates) and incubated overnight @ 37° C. in 5% CO2. After 24 hours, old KGM® was replaced with fresh 2.5 ml KGM®. For 48 hour samples (Plate 1): 2.5 μl isopropanol was added to 1 well; 2.5 μl 10 μM calcitriol was added to 1 well; 2.5 μl 10 μM CTAX was added to 1 well; 2.5 μl 10 μM CTAY was added to 1 well; 2.5 μl […] was added to 1 well. […]
The effect of CYP24 protein expression in HEK cells treated with CYP24 inhibitors was investigated. […] Cell lysates were then analyzed for CYP24 protein by Western blot analysis using anti-CYP24 mAb as the primary antibody. Each sample was expressed as a relative amount of CYP24 protein compared to the control (control=1 unit).

C=C1/C(=C\C=C2/CCC[C@]3(C)[C@@H]([C@H](C)CCCC(C)(C)O)CC[C@@H]23)C[C@@H](O)C[C@@H]1O [Calcitriol]
induction of CYP24 protein (relative to control = 1 unit) (24 hours): weakly induces
induction of CYP24 protein (relative to control = 1 unit) (48 hours): weakly induces
